Holding throughout (assay type): cell-based
For test [1], the target named is T1, Eukaryotic elongation factor 2 kinase (Homo sapiens) (UniProt O00418).
T1 sequence (whole entry): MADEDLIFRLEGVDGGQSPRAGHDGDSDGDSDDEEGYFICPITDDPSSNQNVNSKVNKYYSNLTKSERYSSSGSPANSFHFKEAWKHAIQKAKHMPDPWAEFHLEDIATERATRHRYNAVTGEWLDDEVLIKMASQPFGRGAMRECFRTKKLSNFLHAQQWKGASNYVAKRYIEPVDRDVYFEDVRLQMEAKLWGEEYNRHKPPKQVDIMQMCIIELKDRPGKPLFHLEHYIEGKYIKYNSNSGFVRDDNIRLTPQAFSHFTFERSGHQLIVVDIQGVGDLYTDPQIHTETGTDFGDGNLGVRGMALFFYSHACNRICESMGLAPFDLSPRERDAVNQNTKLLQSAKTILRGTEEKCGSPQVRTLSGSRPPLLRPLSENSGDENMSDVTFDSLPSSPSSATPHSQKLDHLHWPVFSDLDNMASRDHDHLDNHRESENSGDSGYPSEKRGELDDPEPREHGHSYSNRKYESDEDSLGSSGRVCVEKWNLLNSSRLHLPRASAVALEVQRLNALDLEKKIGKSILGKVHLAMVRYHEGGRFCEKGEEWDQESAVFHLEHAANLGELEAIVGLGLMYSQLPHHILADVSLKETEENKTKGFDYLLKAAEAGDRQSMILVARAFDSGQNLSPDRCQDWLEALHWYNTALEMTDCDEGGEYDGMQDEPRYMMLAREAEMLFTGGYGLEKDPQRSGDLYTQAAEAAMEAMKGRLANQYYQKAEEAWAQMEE
In words: Inhibition of eEF2K in human MDA-MB-231 cells assessed as decrease in phosphorylation of eEF2 at Thr56 residue at 20 uM incubated for 2 hrs by western blot analysis. In general terms: A western blot detects proteins with antibodies after separation by electrophoresis.

The target in test [2] is T1, Eukaryotic elongation factor 2 kinase (Homo sapiens). In words: Inhibition of eEF2K in human MDA-MB-231 cells assessed as decrease in phosphorylation of eEF2 at Thr56 residue at 2.5 uM incubated for 2 hrs by western blot analysis.
Test [3] shares this target. The test is described as follows: Inhibition of eEF2K in human MDA-MB-231 cells assessed as decrease in phosphorylation of eEF2 at Thr56 residue at 5 uM incubated for 2 hrs by western blot analysis.

The structures appear in SMILES notation. Activity calls are given as the source filed them. The rule behind the calls is not given here.

This passage reports inhibition results from ChEMBL document CHEMBL5104155, “Novel etodolac derivatives as eukaryotic elongation factor 2 kinase (eEF2K) inhibitors for targeted cancer therapy” (RSC Med Chem, 2022).

`CCc1cccc2c3c([nH]c12)C(CC)(CC(=O)N1CCCCC1)OCC3` (stereo not given): in test [1], the inhibition result was “Active”. `CCc1cccc2c3c([nH]c12)C(CC)(CC(=O)NCCN1CCCCC1)OCC3` (stereo not given): the inhibition result in test [2] and in test [3] was “Active” each time. For the compound `CCc1cccc2c3c([nH]c12)C(CC)(CC(=O)N1CCN(C)CC1)OCC3` (stereo not given), the inhibition result in test [2] and in test [3] was “Active” throughout.
